pIC50: −log10 of the molar value.

Data set [1] can be described thus: Human microsome stability assay. The format is in vitro ADME. The settings on record: 1 μM test compound, 0.5 mg/mL liver microsomal protein, 37° C., pH 7.4. As for the experimental part: The human microsomal stability assay is used for early assessment of metabolic stability of a test compound in human liver microsomes.
Human liver microsomes (Cat. NO.: 452117, Corning, USA; Cat. NO.: H2610, Xenotech, USA) were preincubated with test compound for 10 minutes at 37° C. in 100 mM potassium phosphate buffer, pH 7.4. The reactions were initiated by adding NADPH regenerating system. The final incubation mixtures contained 1 μM test compound, 0.5 mg/mL liver microsomal protein, 1 mM MgCl2, 1 mM NADP, 1 unit/mL isocitric dehydrogenase and 6 mM isocitric acid in 100 mM potassium phosphate buffer, pH 7.4. After incubation times of 0, 3, 6, 9, 15 and 30 minutes at 37° C., 300 μL of cold acetonitrile (including internal standard) was added to 100 μL incubation mixture to terminate the reaction. Following precipitation and centrifugation, the amount of compound remaining in the samples were determined by LC-MS/MS. Controls of no NADPH regenerating system at zero and 30 minutes were also prepared and analyzed.

Another data set has as its target T1, TLR9 (Homo sapiens, UniProt Q9NR96).
T1 sequence (Q9NR96 26-1032): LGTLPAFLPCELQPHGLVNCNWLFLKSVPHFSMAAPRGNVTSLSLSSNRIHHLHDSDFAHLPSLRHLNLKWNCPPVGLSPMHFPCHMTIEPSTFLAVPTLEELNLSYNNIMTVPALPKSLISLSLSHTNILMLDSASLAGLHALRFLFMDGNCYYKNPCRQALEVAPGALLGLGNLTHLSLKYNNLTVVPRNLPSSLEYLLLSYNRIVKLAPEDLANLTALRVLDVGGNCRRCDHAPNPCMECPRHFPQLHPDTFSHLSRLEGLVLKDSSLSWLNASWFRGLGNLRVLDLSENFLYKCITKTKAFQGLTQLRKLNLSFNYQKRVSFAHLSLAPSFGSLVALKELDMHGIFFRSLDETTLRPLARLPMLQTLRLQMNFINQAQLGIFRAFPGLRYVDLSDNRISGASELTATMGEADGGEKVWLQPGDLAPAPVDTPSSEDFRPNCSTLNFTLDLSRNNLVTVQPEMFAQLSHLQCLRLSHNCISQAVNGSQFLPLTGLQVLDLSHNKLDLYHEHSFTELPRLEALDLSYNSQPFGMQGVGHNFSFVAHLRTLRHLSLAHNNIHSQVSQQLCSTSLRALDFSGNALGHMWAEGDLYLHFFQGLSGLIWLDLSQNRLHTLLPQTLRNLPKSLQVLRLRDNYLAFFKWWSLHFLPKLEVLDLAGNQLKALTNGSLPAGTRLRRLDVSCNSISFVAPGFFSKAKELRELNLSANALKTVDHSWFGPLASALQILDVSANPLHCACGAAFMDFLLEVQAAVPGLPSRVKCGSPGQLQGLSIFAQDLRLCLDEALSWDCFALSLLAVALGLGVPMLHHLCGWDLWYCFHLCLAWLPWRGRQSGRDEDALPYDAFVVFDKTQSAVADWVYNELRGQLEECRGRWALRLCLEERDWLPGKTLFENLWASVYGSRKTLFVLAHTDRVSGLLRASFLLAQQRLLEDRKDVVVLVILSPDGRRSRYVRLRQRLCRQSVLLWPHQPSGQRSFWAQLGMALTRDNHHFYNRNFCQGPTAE
The data set is described as follows: HEK293-Blue-hTLR-9 cells assay (SEAP reporter, ODN2006 stimulation). The format is cell-based. On the set-up: host or cells: HEK293 (HEK-Blue hTLR9). The settings on record: HEK293-Blue-hTLR9 cells, ODN2006, 20 hrs; read-out: HEK/hTLR9 IC50. The protocol: The following tests were carried out in order to determine the activity of the compounds of formula (I) and (Ia) in HEK293-Blue-hTLR-7/8/9 cells assay.
A stable HEK293-Blue-hTLR-9 cell line was purchased from InvivoGen (Cat. #: hkb-htlr9, San Diego, California, USA). These cells were originally designed for studying the stimulation of human TLR9 by monitoring the activation of NF-κB. A SEAP (secreted embryonic alkaline phosphatase) reporter gene was placed under the control of the IFN-β minimal promoter fused to five NF-κB and AP-1-binding sites. The SEAP was induced by activating NF-κB and AP-1 via stimulating HEK-Blue hTLR9 cells with TLR9 ligands. Therefore the reporter expression was declined by TLR9 antagonist under the stimulation of a ligand, such as ODN2006 (Cat. #: tlrl-2006-1, Invivogen, San Diego, California, USA), for incubation of 20 hrs. The cell culture supernatant SEAP reporter activity was determined using QUANTI-Blue™ kit (Cat. #: rep-qb1, Invivogen, San Diego, California, USA) at a wavelength of 640 nm, a detection medium that turns purple or blue in the presence of alkaline phosphatase.
HEK293-Blue-hTLR9 cells were incubated at a density of 250,000-450,000 cells/mL in a volume of 170 μL in a 96-well plate in Dulbecco's Modified Eagle's medium (DMEM) containing 4.5 g/L glucose, 50 U/mL penicillin, […], […], 2 mM L-glutamine, 10% (v/v) heat-inactivated fetal bovine serum with addition of 20 μL test compound in a serial dilution in the presence of final DMSO at 1% and 10 μL of 20 uM ODN2006 in above DMEM, perform incubation under 37° C. in a CO2 incubator for 20 hrs. Then 20 μL of the supernatant from each well was incubated with 180 μL Quanti-blue substrate solution at 37° C. for 2 h and the absorbance was read at 620˜655 nm using a spectrophotometer.
The signaling pathway that TLR9 activation leads to downstream NF-κB activation has been widely accepted, and therefore similar reporter assay was modified for evaluating TLR9 antagonist.

On to `CO[C@@H]1CN(c2ccc3c(c2)[C@@H](C)CN(c2cc(C)nc4c2cnn4C)C3)C[C@H]1N` [Example 23, (3R,4R)-4-methoxy-1-[(4R)-2-(1,6-dimethylpyrazolo[3,4-b]pyridin-4-yl)-4-methyl-3,4-dihydro-1H-isoquinolin-6-yl]pyrrolidin-3-amine], for which the “Clearance of Human microsome” value in data set [1] came to 7.5 mL/min/kg. On TLR9, the pIC50 was 6.94.

For the molecule `C[C@H]1CN(c2ccnc3c2cnn3C)Cc2ccc(N3CC4(CCNCC4)OC3=O)cc21` [Example 26, 3-[(4R)-4-methyl-2-(1-methylpyrazolo[3,4-b]pyridin-4-yl)-3,4-dihydro-1H-isoquinolin-6-yl]-1-oxa-3,8-diazaspiro[4.5]decan-2-one], in data set [1], the “Clearance of Human microsome” value amounted to 6.2 mL/min/kg. Besides, the pIC50 at TLR9 is 7.14.

Regarding `C[C@H]1CN(c2ccnc3c2cnn3C)Cc2ccc(N3C4CCC3CNC4)cc21` [Example 27, (4R)-6-(3,8-diazabicyclo[3.2.1]octan-8-yl)-4-methyl-2-(1-methylpyrazolo[3,4-b]pyridin-4-yl)-3,4-dihydro-1H-isoquinoline], the “Clearance of Human microsome” value in data set [1] was determined as 6.2 mL/min/kg. The pIC50 at TLR9 was 6.73.

Consider `C[C@H]1CN(c2ccnc3c2cnn3C)Cc2ccc(N3CCC(N4CC(N)C4)CC3)cc21` [Example 28, 1-[1-[(4R)-4-methyl-2-(1-methylpyrazolo[3,4-b]pyridin-4-yl)-3,4-dihydro-1H-isoquinolin-6-yl]-4-piperidyl]azetidin-3-amine], for which, in data set [1], the “Clearance of Human microsome” value was found to be 6.2 mL/min/kg. Also, the pIC50 on TLR9 was 6.82.

For `C[C@H]1CN(c2ccnc3c2cnn3C)Cc2ccc(N3CCC(N4CC[C@@H](N)[C@H](O)C4)CC3)cc21` [Example 29, trans-4-amino-1-[1-[(4R)-4-methyl-2-(1-methylpyrazolo[3,4-b]pyridin-4-yl)-3,4-dihydro-1H-isoquinolin-6-yl]-4-piperidyl]piperidin-3-ol], in data set [1], the “Clearance of Human microsome” value was determined as 9.7 mL/min/kg. Moreover, the pIC50 at TLR9 was 6.97.

Take `Cc1cc(N2Cc3ccc(OC[C@@H]4CNCCN4)cc3[C@@H](C)C2)c2cnn(C)c2n1` [Example 31, (4R)-2-(1,6-dimethylpyrazolo[3,4-b]pyridin-4-yl)-4-methyl-6-[[(2S)-piperazin-2-yl]methoxy]-3,4-dihydro-1H-isoquinoline]: the “Clearance of Human microsome” value in data set [1] is reported as 7.9 mL/min/kg. Moreover, the pIC50 at TLR9 was 6.98.

For the molecule `C[C@H]1CN(c2ccnc3c2cnn3C)Cc2ccc(N3CC4(CNC4)CC3=O)cc21` [Example 34, 6-[(4R)-4-methyl-2-(1-methylpyrazolo[3,4-b]pyridin-4-yl)-3,4-dihydro-1H-isoquinolin-6-yl]-2,6-diazaspiro[3.4]octan-7-one], the “Clearance of Human microsome” value in data set [1] was 10.1 mL/min/kg. For the same molecule, the pIC50 on TLR9 was 6.70.

With `C[C@H]1CN(c2ccnc3c2cnn3C)Cc2ccc(N3CC4(CCNC4)OC3=O)cc21` (stereo partly drawn) [Example 35, 3-[(4R)-4-methyl-2-(1-methylpyrazolo[3,4-b]pyridin-4-yl)-3,4-dihydro-1H-isoquinolin-6-yl]-1-oxa-3,7-diazaspiro[4.4]nonan-2-one], in data set [1], the “Clearance of Human microsome” value stood at 8.4 mL/min/kg. Also, the pIC50 at TLR9 is 6.74.

As for `C[C@H]1CN(c2ccnc3c2cnn3C)Cc2ccc(N3CCN(Cc4cn(C)cn4)CC3)cc21` [Example 37, (4R)-4-methyl-6-[4-[(1-methylimidazol-4-yl)methyl]piperazin-1-yl]-2-(1-methylpyrazolo[3,4-b]pyridin-4-yl)-3,4-dihydro-1H-isoquinoline], in data set [1], the “Clearance of Human microsome” value is listed as 8.2 mL/min/kg. For the same molecule, the pIC50 on TLR9 was 6.65.

For the molecule `C[C@H]1CN(c2ccnc3c2cnn3C)Cc2ccc(N3CCN(CCN(C)C)CC3)cc21` [Example 38, N,N-dimethyl-2-[4-[(4R)-4-methyl-2-(1-methylpyrazolo[3,4-b]pyridin-4-yl)-3,4-dihydro-1H-isoquinolin-6-yl]piperazin-1-yl]ethanamine], in data set [1], the “Clearance of Human microsome” value came out at 6.2 mL/min/kg. Besides, on TLR9, the pIC50 is 6.83.

Take `C[C@H]1CN(c2ccnc3c2cnn3C)Cc2ccc(OCCN3CCNCC3)cc21` [Example 40, (4R)-4-methyl-2-(1-methylpyrazolo[3,4-b]pyridin-4-yl)-6-(2-piperazin-1-ylethoxy)-3,4-dihydro-1H-isoquinoline]: the “Clearance of Human microsome” value in data set [1] is on record as 6.2 mL/min/kg. Besides, at TLR9, the pIC50 is 6.49.

On to `C[C@H]1CN(c2ccnc3c2cnn3C)Cc2ccc(OC3CN(C4CCNCC4)C3)cc21` [Example 41, (4R)-4-methyl-2-(1-methylpyrazolo[3,4-b]pyridin-4-yl)-6-[1-(4-piperidyl)azetidin-3-yl]oxy-3,4-dihydro-1H-isoquinoline], for which, in data set [1], the “Clearance of Human microsome” value came out at 6.2 mL/min/kg. The pIC50 on TLR9 is 7.33.

On to `C[C@H]1CN(c2ccnc3c2cnn3C)Cc2ccc(O[C@@H]3C[C@H]4CNCCN4C3)cc21` [Example 42, (4R)-4-methyl-2-(1-methylpyrazolo[3,4-b]pyridin-4-yl)-6-[[(7R,8aS)-1,2,3,4,6,7,8,8a-octahydropyrrolo[1,2-a]pyrazin-7-yl]oxy]-3,4-dihydro-1H-isoquinoline], for which, in data set [1], the “Clearance of Human microsome” value turned out to be 6.8 mL/min/kg. The pIC50 on TLR9 was 6.40.

Regarding `C[C@H]1CN(c2ccnc3c2cnn3C)Cc2ccc(OC[C@H]3CNCCN3C)cc21` [Example 43, (4R)-4-methyl-2-(1-methylpyrazolo[3,4-b]pyridin-4-yl)-6-[[(2R)-1-methylpiperazin-2-yl]methoxy]-3,4-dihydro-1H-isoquinoline], the “Clearance of Human microsome” value in data set [1] was determined as 6.2 mL/min/kg. The pIC50 at TLR9 is 6.62.

As for `C[C@H]1CN(c2ccnc3c2cnn3C)Cc2ccc(OC[C@@H]3CNCCN3C=O)cc21` [Example 45, (2S)-2-[[(4R)-4-methyl-2-(1-methylpyrazolo[3,4-b]pyridin-4-yl)-3,4-dihydro-1H-isoquinolin-6-yl]oxymethyl]piperazine-1-carbaldehyde], the “Clearance of Human microsome” value in data set [1] amounted to 10.4 mL/min/kg. Besides, the pIC50 at TLR9 was 6.46.

For the molecule `C[C@H]1CN(c2ccnc3c2cnn3C)Cc2ccc(N3C[C@@H](N)[C@H](O)C3)cc21` [Example 46, trans-4-amino-1-[(4R)-4-methyl-2-(1-methylpyrazolo[3,4-b]pyridin-4-yl)-3,4-dihydro-1H-isoquinolin-6-yl]pyrrolidin-3-ol], the “Clearance of Human microsome” value in data set [1] amounted to 6.2 mL/min/kg. Also, the pIC50 at TLR9 was 6.44.
